Assay results from patent US7262186B2, “Substituted pyrazolo[3,4-d] pyrimidinones as a mitotic kinesin inhibitor” (Merck & Co., Inc., priority 2001, dated 2007).
pIC50: −log10 of the molar value.

Biological target: T1, human KSP motor domain (KSP(367H)) (Homo sapiens, UniProt P52732)
T1 construct: were used to amplify the motor domain and the neck linker region; made in house; host or cells: E. coli BL21 (DE3), pRSETa vector
T1 sequence (P52732 18-359 limits assumed): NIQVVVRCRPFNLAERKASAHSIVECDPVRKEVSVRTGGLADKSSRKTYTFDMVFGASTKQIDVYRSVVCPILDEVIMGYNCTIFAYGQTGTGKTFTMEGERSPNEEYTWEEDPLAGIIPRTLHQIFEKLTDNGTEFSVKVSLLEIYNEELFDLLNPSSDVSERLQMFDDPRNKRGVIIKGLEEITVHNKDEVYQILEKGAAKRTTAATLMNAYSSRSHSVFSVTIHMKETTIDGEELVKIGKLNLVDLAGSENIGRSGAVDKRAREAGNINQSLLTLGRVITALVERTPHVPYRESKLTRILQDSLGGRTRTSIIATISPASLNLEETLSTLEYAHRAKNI
Assay: Kinesin ATPase in vitro assay
Assay type: biochemical
Conditions: microtubule-stimulated ATPase, 1 mM ATP, 23° C., quinaldine red/ammonium molybdate phosphate detection
Description: I. Kinesin ATPase In Vitro Assay
Cloning and Expression of Human Poly-histidine Tagged KSP Motor Domain (KSP(367H))
Plasmids for the expression of the human KSP motor domain construct were cloned by PCR using a pBluescript full length human KSP construct (Blangy et al., Cell, vol. 83, pp 1159-1169, 1995) as a template. The N-terminal primer 5′-[…] (SEQ.ID.NO.: 1) and the C-terminal primer 5′-[…] […] (SEQ.ID.NO.: 2) were used to amplify the motor domain and the neck linker region. The PCR products were digested with AseI and XhoI, ligated into the NdeI/XhoI digestion product of pRSETa (Invitrogen) and transformed into E. coli BL21 (DE3).
Cells were grown at 37° C. to an OD600 of 0.5. […]
The kinesin motor domain is incubated with microtubules, 1 mM ATP (1:1 MgCl2: Na-ATP), and compound at 23° C. in buffer containing 80 mM K-HEPES (pH 7.0), 1 mM EGTA, 1 mM DTT, 1 mM MgCl2, and 50 mM KCl. […] Free phosphate from the ATP hydrolysis reaction is measured via a quinaldine red/ammonium molybdate assay by adding 150 μl of quench C buffer containing a 2:1 ratio of quench A:quench B. Quench A contains 0.1 mg/ml quinaldine red and 0.14% polyvinyl alcohol; quench B contains 12.3 mM ammonium molybdate tetrahydrate in 1.15 M sulfuric acid. The reaction is incubated for 10 minutes at 23° C., and the absorbance of the phospho-molybdate complex is measured at 540 nm.

CCC(c1nc2[nH]nc(Br)c2c(=O)n1Cc1ccccc1)N(CCN(C)C)C(=O)c1ccc(Br)cc1 (stereo not shown) [1-5, N-[1-(5-benzyl-3-bromo-4-oxo-4,5-dihydro-1H-pyrazolo[3,4-d]pyrimidin-6-yl)propyl]-4-bromo-N-[2-(dimethylamino)ethyl]benzamide]
pIC50: ≥ 4.30
